The supplement of paper PMC10307832

How the values were obtained:
Assay in all cases: relative viability (nuclei count vs DMSO), 5 days (fraction); higher = more cells survive
EHT 1864 + Phenformin = compound: C1COCCN1CC2=CC(=O)C(=CO2)OCCCCCSC3=C4C=CC(=CC4=NC=C3)C(F)(F)F [EHT 1864] + N=C(N)NC(=N)NCCc1ccccc1 [Phenformin] (partner 250 µM)
Procedure, shortened: (§1)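 Lung cancer cell lines, seeded in 1536-well plates, were treated the following day by pin tool with a single drug or with five library-drug doses (not always all listed) in √10 steps on top of a fixed anchor-drug dose. Cells were fixed and nuclei stained in one step after 5 days, and nuclei were counted. Relative viability is the nuclei count for treated wells divided by that for vehicle wells, reported as medians of duplicate plates.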

EHT 1864 + Pictilisib = compound: C1COCCN1CC2=CC(=O)C(=CO2)OCCCCCSC3=C4C=CC(=CC4=NC=C3)C(F)(F)F [EHT 1864] + CS(=O)(=O)N1CCN(Cc2cc3nc(-c4cccc5[nH]ncc45)nc(N4CCOCC4)c3s2)CC1 [Pictilisib] (partner 1 µM)
Procedure, shortened: as §1

EHT 1864 + Alpelisib = compound: C1COCCN1CC2=CC(=O)C(=CO2)OCCCCCSC3=C4C=CC(=CC4=NC=C3)C(F)(F)F [EHT 1864] + Cc1nc(NC(=O)N2CCC[C@H]2C(N)=O)sc1-c1ccnc(C(C)(C)C(F)(F)F)c1 [Alpelisib] (partner 2 µM)
Procedure, shortened: as §1

EHT 1864 + AZD7762 = compound: C1COCCN1CC2=CC(=O)C(=CO2)OCCCCCSC3=C4C=CC(=CC4=NC=C3)C(F)(F)F [EHT 1864] + NC(=O)Nc1cc(-c2cccc(F)c2)sc1C(=O)N[C@H]1CCCNC1 [AZD7762] (partner 0.2 µM)
Procedure, shortened: as §1

Cell Line | relative viability (EHT 1864 + Phenformin; first compound 0.04 µM) | relative viability (EHT 1864 + Phenformin; first compound 0.1265 µM) | relative viability (EHT 1864 + Phenformin; first compound 0.4 µM) | relative viability (EHT 1864 + Phenformin; first compound 1.265 µM) | relative viability (EHT 1864 + Phenformin; first compound 4 µM) | relative viability (EHT 1864 + Pictilisib; first compound 0.04 µM) | relative viability (EHT 1864 + Pictilisib; first compound 0.1265 µM) | relative viability (EHT 1864 + Pictilisib; first compound 0.4 µM) | relative viability (EHT 1864 + Pictilisib; first compound 1.265 µM) | relative viability (EHT 1864 + Pictilisib; first compound 4 µM) | relative viability (EHT 1864 + Alpelisib; first compound 0.04 µM) | relative viability (EHT 1864 + Alpelisib; first compound 0.4 µM) | relative viability (EHT 1864 + Alpelisib; first compound 1.265 µM) | relative viability (EHT 1864 + Alpelisib; first compound 4 µM) | relative viability (EHT 1864 + AZD7762; first compound 0.04 µM) | relative viability (EHT 1864 + AZD7762; first compound 0.1265 µM) | relative viability (EHT 1864 + AZD7762; first compound 0.4 µM) | relative viability (EHT 1864 + AZD7762; first compound 1.265 µM) | relative viability (EHT 1864 + AZD7762; first compound 4 µM) | relative viability (EHT 1864 + Alpelisib; first compound 0.1265 µM)
HCC-366 | 0.616 | 0.538 | 0.593 | 0.511 | 0.585 | 0.137 | 0.146 | 0.128 | 0.149 | 0.138 | 0.426 | 0.492 | 0.401 | 0.285 | 0.262 | 0.232 | 0.248 | 0.28 | 0.243 | 
HCC-827 | 0.407 | 0.347 | 0.396 | 0.432 | 0.329 | 1.15 | 1.11 | 1 | 0.875 | 1.12 | 0.981 | 0.958 | 0.953 | 0.891 | 0.198 | 0.22 | 0.228 | 0.252 | 0.201 | 0.887
HOP-62 | 0.665 |  | 0.615 | 0.654 | 0.718 | 0.788 |  | 0.612 | 0.804 | 1.09 | 1.03 | 0.838 | 0.796 | 0.884 | 0.584 |  | 0.466 | 0.485 | 0.794 | 
LC-2-ad | 0.574 |  | 0.632 | 0.64 | 0.696 | 0.335 |  | 0.491 | 0.503 | 0.508 | 0.837 | 0.831 | 0.9 | 0.82 | 0.808 | 0.634 | 0.88 | 0.855 | 0.806 | 
LCLC-97TM1 | 0.424 | 0.364 | 0.444 | 0.415 | 0.414 | 0.222 |  | 0.161 | 0.224 | 0.227 | 0.253 | 0.22 | 0.195 | 0.198 | 0.275 | 0.257 | 0.152 | 0.223 | 0.234 | 
LCLC-103H | 0.356 | 0.271 | 0.357 | 0.33 | 0.391 | 0.656 | 0.482 | 0.667 | 0.661 | 0.547 | 1.05 | 0.956 | 1.03 | 1.07 | 0.823 | 0.686 | 0.818 | 0.698 | 0.5 | 0.888
LK-2 | 0.539 |  | 0.591 | 0.369 | 0.373 | 0.614 | 0.487 | 0.591 | 0.479 | 0.661 | 1.19 | 1.07 | 1.14 | 0.499 | 0.462 |  | 0.296 | 0.443 | 0.286 | 0.972
LOU-NH91 | 0.783 | 0.635 | 0.859 | 0.738 | 0.66 | 0.537 | 0.507 | 0.559 | 0.527 | 0.514 | 0.739 | 0.793 | 0.736 | 0.624 | 0.746 | 0.67 | 0.759 | 0.735 | 0.755 | 0.7
LU99A | 0.811 | 0.557 | 0.821 | 0.857 | 0.808 | 0.389 | 0.276 | 0.326 | 0.289 | 0.336 | 0.495 | 0.452 | 0.583 | 0.54 | 0.445 | 0.203 | 0.359 | 0.308 | 0.403 | 0.381
